Results published in US10822415B2, “Methods for enhancing the potency of the immune checkpoint inhibitors” (INSERM (INSTITUT NATIONAL DE LA SANTÉ ET DE LA RECHERCHE …, priority 2016, dated 2020).

Columns and labels:
S1PR1 = S1PR1 (Mus musculus, UniProt O08530); details: mice; by inhibiting tumor vascularization; cited from earlier work
[1] = test system: Yumm murine melanoma cells; assay: SKI-I treatment with or without immune checkpoint antibody in mice with untransfected Yumm tumors; format: in vivo; details: mice harboring Yumm tumors, SKI-I combined with anti-PD-1
Method: Animal experiments were conducted in accordance with national and international policies, and our protocol was approved by the Regional Ethics Committee of Midi-Pyrenees. 3.105 of Yumm cell lines (Untransfected, shCtrl, shSK1 or shSK1(2)) were intradermally injected into the flank of 7-week-old C57BL/6 mice (Charles River, L'Arbresle, France). CD8-deficient C57BL/6 mice were a gift from Prof. J. van Meerwijk (INSERM U1043, Toulouse, France). Tumor volume was calculated using a caliper at the indicated days as described (Albinet, Bats et al. 2014). For combination experiments involving shCtrl or shSK1 Yumm cells, mice were challenged intradermally (i.d.) with 3.105 cells on day 0 on their right flank. Mice were then injected i.p. three times with anti-CTLA-4 (200 μg per mouse on D7 and 100 μg per mouse on D10 and D13), and/or with anti-PD-1 or isotype control antibody (200 μg per mouse on D5, D7 and D10). Tumor volumes were measured every 2-3 days. Anti-CTLA-4 (9H10), anti-PD-1 (RMP1-14) and isotype control (2A3) were purchased from BioXcell.
For SKI-I treatment, 5 days after Yumm or MC38 cell implantation, mice were treated or not with 50 mg/kg SKI-I (N′-[(2-hydroxynaphthalen-1-yl)methylidene]-3-(naphthalen-2-yl)-1H-pyrazole-5-carbohydrazide, Enamine) in 50 μl of a mixture of DMSO (10%), Cremophor (5%), Tween-80 (5%) and glucose (80%) (i.p.). […]

S1PR1, sequence (O08530 whole entry): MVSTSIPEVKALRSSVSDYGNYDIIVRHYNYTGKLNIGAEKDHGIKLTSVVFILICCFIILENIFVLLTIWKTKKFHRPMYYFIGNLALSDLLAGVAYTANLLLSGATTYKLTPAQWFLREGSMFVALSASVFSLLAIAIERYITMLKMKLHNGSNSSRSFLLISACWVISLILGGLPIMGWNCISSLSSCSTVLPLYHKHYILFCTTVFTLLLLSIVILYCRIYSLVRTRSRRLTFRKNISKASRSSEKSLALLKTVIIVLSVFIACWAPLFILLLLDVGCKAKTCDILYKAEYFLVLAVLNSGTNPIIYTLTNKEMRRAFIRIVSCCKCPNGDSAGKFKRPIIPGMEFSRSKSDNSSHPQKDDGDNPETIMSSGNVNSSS

Row | Structure (SMILES) | melanoma progression (S1PR1) | efficacy of anti-PD-1 (tumor growth) [1]
1 | CCCCCCCCc1ccc(CCC(N)(CO)CO)cc1 [FTY720] | reduced melanoma progression | –
2 | O=C(N/N=C/c1c(O)ccc2ccccc12)c1cc(-c2ccc3ccccc3c2)n[nH]1 [SKI-I, N′-[(2-hydroxynaphthalen-1-yl)methylidene]-3-(naphthalen-2-yl)-1H-pyrazole-5-carbohydrazide] | – | enhanced the efficacy of anti-PD-1
